Patent US20140256551A1, “HERBICIDAL COMPOSITIONS COMPRISING ISOXABEN AND FLUFENACET” (Dow AgroSciences LLC, priority 2013, published 2014)

Columns and labels:
Assay type in all cases: in vivo
Conditions in all cases: 200 L/ha water, isoxaben 40, flufenacet 200, diflufenican 100 g ai/ha, observed mean
[1] = system: STEME (Stellaria media (L.) Vill., common chickweed); experiment: Trial 1: small plot field experiment in winter wheat, foliar applied, visual % control of STEME
Excerpt: (§1) Results in Tables 1 and 2 are for foliar applied compositions in small plot research experiments to evaluate the efficacy of the compositions in winter wheat. Application water volume was 200 liters per hectare (L/ha). Crop stage at time of application was 12-13. The values reported are means. […] Colby's equation was used to determine the herbicidal effects expected from the mixtures (Colby, S. R. Calculation of the synergistic and antagonistic response of herbicide combinations. Weeds 1967, 15, 20-22.). More specifically, the following equation was used to calculate the expected activity of mixtures containing two active ingredients, A and B:
(§2) A=observed efficacy of active ingredient A at the same concentration as used in the mixture;
(§3) B=observed efficacy of active ingredient B (or combination B) at the same concentration as used in the mixture.

[2] = system: BRSNW (Brassica napus, winter oilseed rape); experiment: Trial 1: small plot field experiment in winter wheat, foliar applied, visual % control of BRSNW
Excerpt: as §1, §2, §3

[3] = system: GERDI (Geranium dissectum, cutleaf geranium); experiment: Trial 1: small plot field experiment in winter wheat, foliar applied, visual % control of GERDI
Excerpt: as §1, §2, §3

[4] = system: BRSNW (Brassica napus, winter oilseed rape); experiment: Trial 2: small plot field experiment in winter wheat, foliar applied, visual % control of BRSNW
Excerpt: as §1, §2, §3

Compound	VISUAL % CONTROL OF STEME 28 DAT, Ob [1] [e %]	VISUAL % CONTROL OF BRSNW 28 DAT, Ob [2] [d %]	VISUAL % CONTROL OF GERDI 28 DAT, Ob [3] [d %]	VISUAL % CONTROL OF BRSNW 13 DAT, Ob [4]	VISUAL % CONTROL OF BRSNW 25 DAT, Ob [4]
CC(C)N(C(=O)COc1nnc(C(F)(F)F)s1)c1ccc(F)cc1 [flufenacet, N-(4-fluorophenyl)-N-(1-methylethyl)-2-[[5-(trifluoromethyl)-1,3,4-thiadiazol-2-yl]oxy]acetamide]	0	0	0	43 cd %	55 b %
CCC(C)(CC)c1cc(NC(=O)c2c(OC)cccc2OC)on1 [isoxaben, N-[3-(1-ethyl-1-methylpropyl)isoxazol-5-yl]-2,6-dimethoxybenzamide]	0	0	0	22 de %	23 cd %
